Broadly, the AUC(0-inf) is the area under the concentration-time curve extrapolated to infinity. A word on the Cmax: it is the maximum level reached in the sampled fluid or tissue. In general, Tmax refers to the time at which the peak concentration occurs. For orientation: half-life means the time needed for the level to fall by half in the phase considered.

Here are results for one molecule from US20160303137A1, “DUAL PI3K AND WNT PATHWAY INHIBITION AS A TREATMENT FOR CANCER” (Indiana University Research and Technology Corporation, priority 2015, published 2016).

Series [1] is described as follows: In vivo single-dose PK, plasma HPLC-MS/MS. The arrangement: species or system NSG mice. Conditions: for AUC(0-inf) / Cmax / Tmax / half-life / Vd/F: NOD-scid IL2Rgamma-null (NSG), mouse, po; for Vd/F: read-out: Vdss/F; for Cl/F: single dose po. The procedure: For pharmacokinetic studies, NOD-scid IL2Rgamma-null (NSG) mice were obtained from the In Vivo Therapeutics (IVT) Core at the Indiana University School of Medicine and given a single dose of Buparlisib, WNT974, or the combination at pre-established concentrations of 30 mg/kg and 3 mg/kg respectively. This experiment employed 45 NSG mice (n=15 for each group). Plasma was drawn from 3 mice from each group at 0.5, 1, 2, 6, and 24 hours post dosage. Buparlisib and WNT974 were quantified in the plasma using high-performance liquid chromatography-mass spectrometry (HPLC-MS/MS). Pharmacokinetic (PK) parameters for Buparlisib and WNT974 including area under the curve (AUC), area under the moment curve (AUMC), and half-life (t½) were estimated using non-compartmental methods with Excel and WinNonlin v 2.0 (Certara, Princeton, N.J.). The maximum plasma concentration (Cmax) and time of Cmax (tmax) was calculated from the data. The systemic clearance (Cl/F, where F=bioavailability) of each drug was calculated from the dose and AUC0-∝The apparent volume of distribution (Vdss/F) was estimated from the Cl/F and mean residence time. The single-agent pharmacokinetic parameters were compared to the drug combination parameters to determine whether a drug-drug interaction exists.

Series [2] relates to TMD-231 TNBC cells. Briefly: Pharmacodynamic study, TMD-231 xenograft tumor volume. In kind it is in vivo, NSG mice. Conditions: single agent, 7 days once-a-day; Buparlisib 30 mg/kg, WNT974 3 mg/kg. The procedure: For the pharmacodynamic studies, NSG mice were implanted with TMD-231 TNBC cells into the mammary fat pad of 24 NSG mice (6 mice per group: Vehicle, Buparlisib, WNT974, Buparlisib+WNT974). The TMD-231 cell line is a variant of the MDA-MB-231 cell line that metastasizes to the lung. Tumors were allowed to grow for 29 days to an average size of approximately 350 mm^3 prior to dosing. To validate compound-mediated modulation of the PI3K/mTOR and Wnt signaling pathways, mice were dosed once-a-day with vehicle, Buparlisib (30 mg/kg), WNT974 (3 mg/kg), or the combination for 7 days, with intermittent tumor measurements.

Series [3] can be described thus: Quantification of drug in resected tumors (PD study). In kind it is in vivo, NSG mice. The conditions noted are these: tumors resected 1 hour and 7 hours after last dose, day 7; HPLC-MS/MS.
The subject of series [4] is Phospho-AKT. Briefly: pAKT western blot on TMD-231 tumors (PD study). In kind it is in vivo, NSG mice. The conditions noted are these: 7 days once-a-day; Buparlisib 30 mg/kg, WNT974 3 mg/kg. The protocol: (§1) For Western Blot analysis, target modulation was assessed using qPCR for Axin2 (a marker of WNT974), and western blot for Porcupine and Phospho-Akt […] (a marker of Buparlisib activity). qPCR was performed using Taqman assays (Life Technologies). For western blotting, protein was isolated using RIPA buffer and quantified with BCA assay (Thermo Fisher). Protein was run on Bis-Tris gels (Life Technologies) and transferred to PVDF. Primary pAKT-[…] antibody (Cell Signaling Technology, Beverly, Mass.), β-actin (Cell Signaling Technology), and PORCN (Abcam, Cambridge, England) were incubated overnight with subsequent 1 hour incubation with HRP-conjugate secondary antibody. Staining was performed using a chemiluminescent substrate (ThermoFisher). Imaging was performed using an LAS-4000 Luminescent Image Analyzer (Fujifilm, Tokyo, Japan).

Series [5] relates to AXIN2 RNA. Briefly: Axin2 RNA qPCR on TMD-231 tumors (PD study). In kind it is in vivo, NSG mice. The conditions noted are these: 7 days once-a-day; Buparlisib 30 mg/kg, WNT974 3 mg/kg. The procedure: as §1
Background: In qPCR the cycle at which signal appears reflects the starting amount.

The subject of series [6] is TMD-231 lung metastases. Briefly: Lung metastases quantification (Ki67), TMD-231 model. In kind it is in vivo, NSG mice. Conditions: Ki67 positive pixels in lung sections; Buparlisib 30 mg/kg, WNT974 3 mg/kg. The protocol: For the pharmacodynamic studies, NSG mice were implanted with TMD-231 TNBC cells into the mammary fat pad of 24 NSG mice (6 mice per group: Vehicle, Buparlisib, WNT974, Buparlisib+WNT974). The TMD-231 cell line is a variant of the MDA-MB-231 cell line that metastasizes to the lung. Tumors were allowed to grow for 29 days to an average size of approximately 350 mm^3 prior to dosing. To validate compound-mediated modulation of the PI3K/mTOR and Wnt signaling pathways, mice were dosed once-a-day with vehicle, Buparlisib (30 mg/kg), WNT974 (3 mg/kg), or the combination for 7 days, with intermittent tumor measurements. […] To quantify lung metastases, lungs were extracted, fixed in 10% formalin, and processed in paraffin. Five-micrometer sections were H&E stained, deparaffinized, blocked, and stained using primary anti-human Ki67 antibody (DAKO, Carpinteria, Calif.). The Aperio whole slide digital imaging system was used for imaging (Leica, Wetzlar, Germany). Using the Aperio ScanScope CS, 20× images were taken at scan times ranging from 1.5 to 2.25 minutes. The total nuclear labeling index (Ki67) was generated using the Aperio ImageScope standard positive pixel algorithm. The Image Analysis software was used to calculate the percent of positive pixels (brown staining) in one large cross section from each lung.

The test system of series [7] is TNBC patient derived xenograft (PDX) (ID: BR0901). The series can be described thus: TNBC PDX study, survival. In kind it is in vivo, NSG mice. The conditions noted are these: n=10 per group, once-a-day max 28 days; Buparlisib 30 mg/kg, WNT974 3 mg/kg. The procedure: NSG mice were trochar implanted in the right hind flank with a passage 1-4, 5 mm^3 TNBC patient derived xenograft (PDX) (ID: BR0901) at The Jackson Laboratory (The Jackson Laboratory, Bar Harbor, Maine). […] 40 TNBC PDX implanted mice were used (10 mice per group: Vehicle, Buparlisib (30 mg/kg), WNT974 (3 mg/kg), and Buparlisib+WNT974). Tumors were grown to an average of 70-150 mm^3 and mice averaged 22.5 grams body weight. Mice were dosed once-a-day for a maximum of 28 days. Tumor measurements were made two times a week. Mice whose tumors reached a size of 1500 mm^3 were euthanized per IACUC protocol.

For series [8] the following is noted: known; cited from earlier work.
Series [9] concerns the target T1, Porcupine (Homo sapiens, UniProt Q9H237).
T1 sequence (Q9H237 1-461): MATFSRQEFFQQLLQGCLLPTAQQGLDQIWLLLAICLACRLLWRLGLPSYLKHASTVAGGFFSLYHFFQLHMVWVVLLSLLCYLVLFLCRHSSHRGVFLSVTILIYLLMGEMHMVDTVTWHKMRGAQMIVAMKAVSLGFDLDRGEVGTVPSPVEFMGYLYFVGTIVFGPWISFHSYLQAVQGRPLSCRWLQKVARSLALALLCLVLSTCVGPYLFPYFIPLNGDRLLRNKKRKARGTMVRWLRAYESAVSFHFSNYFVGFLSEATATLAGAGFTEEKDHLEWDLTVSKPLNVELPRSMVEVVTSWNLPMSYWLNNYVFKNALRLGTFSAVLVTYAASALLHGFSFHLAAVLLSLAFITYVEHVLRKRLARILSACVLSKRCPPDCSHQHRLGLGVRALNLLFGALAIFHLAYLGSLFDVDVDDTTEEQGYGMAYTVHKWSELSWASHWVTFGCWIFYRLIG
Conditions: recently published data; cited from earlier work.

Series [10] concerns tumor growth. Conditions: recently published data; cited from earlier work.
The mark [11] stands for this setting: drug given alone, Buparlisib 30 mg/Kg, WNT974 3 mg/Kg.
Where [12] appears, read: measured drug given in combination with the other, Buparlisib 30 mg/Kg + WNT974 3 mg/Kg.

Read-outs that look alike come from different tables or passages of the source.

Turning to `Cc1cc(-c2ncc(CC(=O)Nc3ccc(-c4cnccn4)cn3)cc2C)ccn1` [WNT974, 2-[5-methyl-6-(2-methylpyridin-4-yl)pyridin-3-yl]-N-(5-pyrazin-2-ylpyridin-2-yl)acetamide], in series [1] (setting [11]), the AUC(0-inf) was found to be 636 ng·h/mL, the Cmax came out at 165 ng/mL, the Tmax stood at 1 h and the half-life was 2.1 h. Moreover, in series [1] (setting [11]), the Vd/F worked out at 0.24 L and the Cl/F is 0.081 L/h. In addition, in [1] (setting [12]), the AUC(0-inf) is 621 ng·h/mL, the Cmax is 143 ng/mL, the Tmax was found to be 1 h and the half-life was 3 h. In [1] (setting [12]), the Vd/F stood at 0.4 L and the Cl/F is 0.087 L/h. Besides, in series [2], the “tumor volume change (in words)” value is “grew slightly”. Further, the “drug concentrations in tumor tissue” value in series [3] was “reaching the tumor”. In addition, in series [4], the “Inhibition of Phospho-AKT in tumors” value is on record as “not”. In addition, in series [5], the “Axin2 RNA expression in tumors” value is recorded as “decrease”. Also, the “lung metastases compared with the control group” value in series [6] is reported as “small but non-significant decreases”. The “mice survived to the end of the study” value in [7] came out at 0%. Further, the “toxicity / most common side effect in humans” value in series [8] is recorded as “dysgeusia”. Further, the “inhibition of its target” value in series [9] is “potent inhibition”. The “inhibition of tumor growth in vivo” value in series [10] was “significant inhibition”.
